Data: patent US20120270929A1, “MODULATION OF TTC39 EXPRESSION TO INCREASE HDL” (ISIS Pharmaceuticals, Inc., priority 2009, published 2012)
Oligonucleotides are written 5' to 3', each unit as a sugar letter and its base; * is a phosphorothioate linkage, no mark a phosphodiester; rarer units and linkages stand in square brackets, end groups in braces. Plain capitals give the bases only. e = 2'-O-(2-methoxyethyl) (MOE); [5mC] = 5-methylcytosine; d = 2'-deoxy (DNA)

Tests used:
murine TTC39C mRNA [1] = experiment: Dose-dependent antisense inhibition of murine TTC39C in mouse primary hepatocytes; type: cell-based; conditions: electroporation, ~16 h; for IC50: mouse primary hepatocytes
Protocol: Thirty antisense oligonucleotides were selected from the study described in Example 8 and further tested at various doses in mouse primary hepatocytes. Cells were plated at a density of 30,000 cells per well and transfected using electroporation with 500 nM, 1,000 nM, 2,000 nM, 4,000 nM, and 8,000 nM concentrations of antisense oligonucleotide, as specified in Table 30. After a treatment period of approximately 16 hours, RNA was isolated from the cells and TTC39C mRNA levels were measured by quantitative real-time PCR. Murine primer probe set RTS3266 was used to measure mRNA levels. TTC39C mRNA levels were adjusted according to total RNA content, as measured by RIBOGREEN®. Results are presented as percent inhibition of TTC39C, relative to untreated control cells.

murine TTC39C mRNA [2] = experiment: Antisense inhibition of mouse TTC39C in mouse primary hepatocytes, single dose; type: cell-based; conditions: 8,000 nM antisense oligonucleotide, electroporation, approximately 24 hours, TTC39C mRNA by real-time PCR (RTS3266), relative to untreated control cells
Protocol: Antisense oligonucleotides were designed targeting a TTC39C nucleic acid and were tested for their effects on TTC39C mRNA in vitro. Cultured mouse primary hepatocytes at a density of 30,000 cells per well were transfected by electroporation with 8,000 nM antisense oligonucleotide. After a treatment period of approximately 24 hours, RNA was isolated from the cells and TTC39C mRNA levels were measured by quantitative real-time PCR. Mouse primer probe set RTS3266 (forward sequence […], designated herein as SEQ ID NO: 140; reverse sequence […], designated herein as SEQ ID NO: 141; probe sequence […], designated herein as SEQ ID NO: 142). TTC39C mRNA levels were adjusted according to total RNA content, as measured by RIBOGREEN®. Results are presented as percent inhibition of TTC39C, relative to untreated control cells.
The chimeric antisense oligonucleotides targeting TTC39C were designed as 5-10-5 MOE gapmers. The gapmers are 20 nucleotides in length, wherein the central gap segment is comprised of ten 2′-deoxynucleotides and is flanked on both sides (in the 5′ and 3′ directions) by wings comprising five nucleotides each. Each nucleotide in the 5′ wing segment and each nucleotide in the 3′ wing segment has a 2′-MOE modification. The internucleoside linkages throughout each gapmer are phosphorothioate (P═S) linkages. All cytosine residues throughout each gapmer are 5-methylcytosines. “Mouse Target start site” indicates the 5′-most nucleotide to which the gapmer is targeted in the mouse gene sequence.

| Substance | percent inhibition of TTC39C mRNA (murine TTC39C mRNA [1]; 500.0 nM) [%] | percent inhibition of TTC39C mRNA (murine TTC39C mRNA [1]; 1000.0 nM) [%] | percent inhibition of TTC39C mRNA (murine TTC39C mRNA [1]; 2000.0 nM) [%] | percent inhibition of TTC39C mRNA (murine TTC39C mRNA [1]; 4000.0 nM) [%] | percent inhibition of TTC39C mRNA (murine TTC39C mRNA [1]; 8000.0 nM) [%] | % inhibition (murine TTC39C mRNA [2]) [%] | IC50 (murine TTC39C mRNA [1]) [nM] |
| --- | --- | --- | --- | --- | --- | --- | --- |
| ISIS 474518: 5-10-5 MOE gapmer antisense oligonucleotide targeting murine TTC39C (antisense eG*eT*eA*eG*eT*d[5mC]*dT*dT*dT*dA*dA*dG*dT*d[5mC]*dA*eT*e[5mC]*eG*e[5mC]*eA) | 61 | 73 | 90 | 94 | 96 | 96 | – |
| ISIS 474615: 5-10-5 MOE gapmer antisense oligonucleotide targeting murine TTC39C (antisense eG*eT*eA*e[5mC]*eG*dA*dG*dT*dT*dA*d[5mC]*dT*d[5mC]*dT*dG*e[5mC]*e[5mC]*eG*eA*e[5mC]) | 33 | 43 | 82 | 92 | 98 | 96 | 900 |
| ISIS 474595: 5-10-5 MOE gapmer antisense oligonucleotide targeting murine TTC39C (antisense eG*eT*e[5mC]*eA*eT*d[5mC]*dG*d[5mC]*dA*d[5mC]*dG*d[5mC]*d[5mC]*dA*dA*e[5mC]*eT*eG*e[5mC]*eA) | 80 | 87 | 95 | 98 | 98 | 97 | – |
| ISIS 474521: 5-10-5 MOE gapmer antisense oligonucleotide targeting murine TTC39C (antisense eG*eG*e[5mC]*eT*eT*dT*d[5mC]*d[5mC]*dT*dA*dA*dG*dG*dA*dT*e[5mC]*e[5mC]*eA*e[5mC]*e[5mC]) | 46 | 63 | 84 | 92 | 97 | 97 | 500 |
| ISIS 474540: 5-10-5 MOE gapmer antisense oligonucleotide targeting murine TTC39C (antisense e[5mC]*e[5mC]*eA*e[5mC]*eT*dG*dG*dG*dA*dG*dT*dT*dT*dA*dT*e[5mC]*eA*e[5mC]*eT*eG) | 43 | 65 | 81 | 92 | 97 | 98 | 500 |
| ISIS 474515: 5-10-5 MOE gapmer antisense oligonucleotide targeting murine TTC39C (antisense eT*e[5mC]*e[5mC]*e[5mC]*eT*dG*dA*dA*dG*d[5mC]*d[5mC]*dG*dT*dT*dG*eT*eT*eG*eA*eG) | 56 | 62 | 79 | 91 | 94 | 96 | – |
| ISIS 474592: 5-10-5 MOE gapmer antisense oligonucleotide targeting murine TTC39C (antisense eG*eA*eA*eG*e[5mC]*dA*dT*dA*dT*dT*dG*dA*dT*dG*d[5mC]*e[5mC]*eA*eG*e[5mC]*e[5mC]) | 24 | 45 | 71 | 84 | 92 | 93 | 1200 |
| ISIS 474609: 5-10-5 MOE gapmer antisense oligonucleotide targeting murine TTC39C (antisense e[5mC]*eG*eT*eA*eG*dT*dA*dG*d[5mC]*dA*d[5mC]*dT*dG*dG*dG*eA*e[5mC]*e[5mC]*eA*e[5mC]) | 48 | 56 | 71 | 90 | 97 | 95 | 600 |
| ISIS 474598: 5-10-5 MOE gapmer antisense oligonucleotide targeting murine TTC39C (antisense e[5mC]*e[5mC]*e[5mC]*eA*e[5mC]*d[5mC]*dT*dT*dT*dT*dA*dT*dG*dT*dA*eG*eG*e[5mC]*e[5mC]*eG) | 40 | 37 | 60 | 83 | 94 | 94 | 1100 |
| ISIS 474596: 5-10-5 MOE gapmer antisense oligonucleotide targeting murine TTC39C (antisense e[5mC]*eG*eA*eT*eT*dA*d[5mC]*dA*d[5mC]*d[5mC]*dA*dG*d[5mC]*d[5mC]*dT*e[5mC]*eT*eT*e[5mC]*eA) | 47 | 65 | 62 | 90 | 96 | 93 | 600 |
| ISIS 474617: 5-10-5 MOE gapmer antisense oligonucleotide targeting murine TTC39C (antisense eA*eG*eT*eT*e[5mC]*d[5mC]*d[5mC]*dT*dT*dA*dG*dG*dG*dA*dG*eG*e[5mC]*e[5mC]*eA*eG) | 43 | 45 | 80 | 86 | 94 | 94 | 800 |
| ISIS 474604: 5-10-5 MOE gapmer antisense oligonucleotide targeting murine TTC39C (antisense eT*eG*eT*e[5mC]*eA*d[5mC]*dT*dG*d[5mC]*d[5mC]*dG*dT*d[5mC]*d[5mC]*dA*eA*eA*eG*e[5mC]*eA) | 43 | 70 | 84 | 88 | 96 | 97 | 500 |
| ISIS 474629: 5-10-5 MOE gapmer antisense oligonucleotide targeting murine TTC39C (antisense eG*eA*eT*e[5mC]*eA*d[5mC]*dT*dG*d[5mC]*d[5mC]*dG*dT*d[5mC]*d[5mC]*dA*eA*eA*eG*e[5mC]*eA) | 16 | 28 | 42 | 48 | 66 | 93 | 3600 |
| ISIS 474543: 5-10-5 MOE gapmer antisense oligonucleotide targeting murine TTC39C (antisense e[5mC]*e[5mC]*eA*eG*eG*dT*dG*dG*d[5mC]*dT*dT*dT*dG*dG*d[5mC]*eT*eT*eG*eG*eG) | 77 | 88 | 88 | 88 | 94 | 98 | – |
| ISIS 474666: 5-10-5 MOE gapmer antisense oligonucleotide targeting murine TTC39C (antisense e[5mC]*eA*eA*eT*e[5mC]*dA*dT*dG*d[5mC]*dT*dG*d[5mC]*dA*d[5mC]*d[5mC]*eA*eG*e[5mC]*e[5mC]*eT) | 35 | 54 | 79 | 92 | 95 | 95 | 800 |
| ISIS 474599: 5-10-5 MOE gapmer antisense oligonucleotide targeting murine TTC39C (antisense e[5mC]*eG*eT*eT*eG*dA*dT*dG*dT*d[5mC]*d[5mC]*dA*d[5mC]*dA*dT*eA*eG*e[5mC]*eA*e[5mC]) | 36 | 59 | 60 | 84 | 92 | 92 | 900 |
